Data as given in ChEMBL document CHEMBL3832027, “DailyMed|setid=517fbb02-8793-4647-83c7-25a91be49622 | LEVITRA - vardenafil hydrochloride tablet, film coated|PD-Rx Pharmaceuticals, Inc”.

How the values were obtained:
[1] = Evaluation of pharmacokinetic parameters for Vardenafil evaluated following single oral administration of Vardenafil to healthy male volunteers.; type: ADME, organism-based; details: human, in vivo, dose 20 mg, dosed compound id 28, dosed compound name VARDENAFIL HYDROCHLORIDE, gender male, regimen Single dose, tissue Plasma
Homo sapiens = test: Mean steady-state volume of distribution (Vss) for Vardenafil following oral doses of Vardenafil.; type: ADME, organism-based; details: in vivo, dose 20 mg, dosed compound id 28, dosed compound name VARDENAFIL HYDROCHLORIDE, gender male, regimen Multiple dose, tissue Plasma

Tmax ([1]; dietary status Fasting): 0.5 to 2 h
half-life [1]: 4 to 5 h
Vss (Homo sapiens): 208 L
Structure (SMILES): CCCc1nc(C)c2c(=O)nc(-c3cc(S(=O)(=O)N4CCN(CC)CC4)ccc3OCC)[nH]n12.Cl [VARDENAFIL HYDROCHLORIDE]
